Measured values published in patent publication US9649315B2, “Composition useful for treating disorders related to TRPA1” (HYDRA BIOSCIENCES, INC., priority 2008, dated 2017).

Experiments:
[1] = test system: formalin-induced pain behavior; assay: Formalin-induced pain behavior in rats; assay type: in vivo, rat; settings: 50 mg/kg oral, one hour prior to intraplantar formalin (3%), observed for 2 minutes following injection
Protocol: Compound 1 was tested in the formalin-induced pain test reported by Dubuisson et al., Pain 1977 December; 4(2):161-74. The compound was dosed orally in rats (8 animals) at 50 mg/kg, one hour prior to intraplantar formalin (3%) injection. The control group (8 animals) received vehicle (30% Captisol® in water, pH 10). […] The duration of pain behavior in the treated animals was reduced by about 30%, compared to the animals who received vehicle.

[2] = biological target: hTRPA1 channel (Homo sapiens, UniProt O75762); assay: Inhibition of TRPA1 channel activity; assay type: cell-based; settings: procedure similar to WO 2007/073505; read-out: IC50 against hTRPA1 channel activity
Protocol: Compound 1 was tested using a procedure similar to the procedure outlined in WO 2007/073505.

[3] = test system: AITC-induced pain behavior; assay: AITC-induced pain behavior (automated flinch detecting system) in the rat; assay type: in vivo; settings: 50 mg/kg oral gavage
Protocol: Compound 1 was tested in the automated flinch detecting system described by Yaksh et al., J. Appl. Physiol 90: 2386-2402 (2001). A small metal band was loosely placed around each rat's left hind paw. The fasted rats were dosed (50 mg/kg) via oral gavage with Compound 1 (8 animals) or vehicle (8 animals, 30% Captisol® in water, pH 10). The rats were acclimatized in the test chamber prior to allyl isothiocyanate (AITC) administration. AITC was then injected into the paw of each animal, and the animal was promptly returned to the chamber. The number of paw flinches was monitored for 60 minutes. After 10 minutes, animals receiving vehicle flinched a total of about 350 times, while the treated animals flinched about 200 times. After 60 minutes the animals that had received vehicle prior to AITC administration flinched about 1950 times, while the compound pre-treated animals flinched about 1000 times.

hTRPA1 channel, sequence (O75762 whole entry): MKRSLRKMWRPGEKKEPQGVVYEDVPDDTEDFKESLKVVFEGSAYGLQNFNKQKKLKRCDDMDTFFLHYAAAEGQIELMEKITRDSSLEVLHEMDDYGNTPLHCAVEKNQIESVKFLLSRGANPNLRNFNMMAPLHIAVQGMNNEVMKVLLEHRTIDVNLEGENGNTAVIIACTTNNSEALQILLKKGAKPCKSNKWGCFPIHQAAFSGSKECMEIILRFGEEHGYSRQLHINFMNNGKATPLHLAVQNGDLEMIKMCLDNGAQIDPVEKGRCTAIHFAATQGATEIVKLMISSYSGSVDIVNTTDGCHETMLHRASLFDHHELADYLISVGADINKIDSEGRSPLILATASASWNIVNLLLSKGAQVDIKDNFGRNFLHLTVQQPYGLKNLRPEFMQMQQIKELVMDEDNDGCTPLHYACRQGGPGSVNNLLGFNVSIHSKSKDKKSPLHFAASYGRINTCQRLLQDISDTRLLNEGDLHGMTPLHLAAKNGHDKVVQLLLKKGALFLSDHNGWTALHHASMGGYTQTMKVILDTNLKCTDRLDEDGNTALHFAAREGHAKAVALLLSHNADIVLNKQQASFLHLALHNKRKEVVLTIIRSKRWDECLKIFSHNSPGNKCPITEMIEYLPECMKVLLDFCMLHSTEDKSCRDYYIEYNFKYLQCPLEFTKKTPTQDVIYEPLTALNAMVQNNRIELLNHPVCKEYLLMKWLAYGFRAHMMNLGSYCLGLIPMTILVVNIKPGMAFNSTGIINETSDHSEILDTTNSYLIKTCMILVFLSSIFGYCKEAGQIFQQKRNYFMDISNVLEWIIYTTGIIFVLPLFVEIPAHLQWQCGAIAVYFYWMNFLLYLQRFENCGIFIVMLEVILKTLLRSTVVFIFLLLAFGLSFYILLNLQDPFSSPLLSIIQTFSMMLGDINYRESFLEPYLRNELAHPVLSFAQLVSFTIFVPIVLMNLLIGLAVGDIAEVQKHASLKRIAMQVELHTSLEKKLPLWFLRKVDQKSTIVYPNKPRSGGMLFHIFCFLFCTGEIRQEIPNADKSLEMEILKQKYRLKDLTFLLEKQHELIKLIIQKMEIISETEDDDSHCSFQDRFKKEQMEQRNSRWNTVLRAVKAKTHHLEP

## C[C@H]1CCCN1c1ccc(-c2csc(NC(=O)Cn3cnc4c3c(=O)n(C)c(=O)n4C)n2)cc1F [Compound 1]
[1]
  reduction of duration of pain behavior compared to vehicle: about 30%
[2]
  IC50: ~4 nM
[3]; fasted rats, AITC injected into paw, after 10 minutes (vehicle about 350)
  total number of paw flinches after 10 minutes: about 200 times
[3]; fasted rats, AITC injected into paw, after 60 minutes (vehicle about 1950)
  total number of paw flinches after 60 minutes: about 1000 times
[3]; rats
  effect on AITC-induced pain behavior: able to reduce the AITC-induced pain behavior
